Laboratory results as given in publication PMC9960827, “Cloning and Characterization of Trypanosoma congolense and T. vivax Nucleoside Transporters Reveal the Potential of P1-Type Carriers for the Discovery of Broad-Spectrum Nucleoside-Based Therapeutics against Animal African Trypanosomiasis” (International Journal of Molecular Sciences, 2023).
Read-outs that look alike come from different tables or passages of the source. Marks after values point to notes of the source that are not given here.

Experiments:
TbNT10 = tested on: TbNT10; set-up: method as in Al-Salabi et al. [40]; details: called Km values; ref Al-Salabi et al. [40]; cited from earlier work
TcoAT1 [1] = format: cell-based, Trypanosoma congolense; details: for ΔG0: Gibbs free energy of binding, from Km or Ki; for Ki: 10 s, IC50 converted to Ki, read-out: Ki on the transport of [3H]-adenosine; for δ(ΔG0): loss of Gibbs free energy of binding relative to the parent nucleoside
Method in brief: (§1)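 Transporter genes were expressed in an L. mexicana line lacking NT1 and NT2 (SUPKO), and 1 × 10^7 cells in HEPES/bicarbonate buffer pH 7.3 took up radiolabeled permeant through an oil layer, with or without inhibitor. Uptake was stopped with ice-cold unlabeled substrate or by centrifugation, and pellets were counted. IC50 against radiolabeled adenosine was converted to Ki by Cheng–Prusoff using the permeant Km.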

[2] = tested on: T. congolense adenosine transporter; experiment: [3H]-adenosine uptake and its inhibition in T. congolense IL3000 bloodstream forms; format: cell-based, Trypanosoma congolense; details: for ΔG0, Gibbs free energy of interaction: calculated from Km or Ki; for Ki: 30 s, IC50 converted to Ki, read-out: Ki on the transport of [3H]-adenosine
Method in brief: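 Bloodstream-form T. congolense IL3000 (1 × 10^7 cells) in HEPES/bicarbonate buffer pH 7.3 took up [3H]-adenosine over a set interval, with or without inhibitor, ending by ice-cold unlabeled substrate stop or centrifugation through oil. Pellet radioactivity gave IC50 by sigmoid fit; Ki followed by Cheng–Prusoff using adenosine Km.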

TvxNT3 = TvxNT3 (Trypanosoma vivax, UniProt F9WV62); experiment: cell-based; format: cell-based; details: for remaining activity at 100 µM: read-out: [3H]-adenosine uptake remaining in presence of inhibitor; for δ(ΔG0): difference in ΔG0 relative to the parent purine (adenosine or inosine)
Sequence of TvxNT3 (F9WV62 entry or part of it): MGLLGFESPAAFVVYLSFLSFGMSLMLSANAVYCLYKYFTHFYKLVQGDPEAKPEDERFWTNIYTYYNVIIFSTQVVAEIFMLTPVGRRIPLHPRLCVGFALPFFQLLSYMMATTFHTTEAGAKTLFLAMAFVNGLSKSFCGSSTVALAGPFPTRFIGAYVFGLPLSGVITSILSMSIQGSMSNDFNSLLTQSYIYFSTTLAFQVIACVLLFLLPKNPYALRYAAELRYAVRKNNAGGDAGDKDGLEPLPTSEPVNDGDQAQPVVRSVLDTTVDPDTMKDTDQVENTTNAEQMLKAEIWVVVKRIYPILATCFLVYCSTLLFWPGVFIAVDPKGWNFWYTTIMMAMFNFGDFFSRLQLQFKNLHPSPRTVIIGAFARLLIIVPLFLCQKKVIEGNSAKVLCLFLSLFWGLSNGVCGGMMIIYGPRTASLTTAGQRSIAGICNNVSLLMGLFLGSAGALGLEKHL
Method in brief: as §1

[3] = tested on: T. b. brucei P1 (TbP1/NT2); details: cited from earlier work; for Ki: read-out: Tbb P1 Ki
T. congolense IL3000 BSF = experiment: Nucleus/kinetoplast configuration (DAPI) of T. congolense exposed to drug; format: cell-based, Trypanosoma congolense; details: 2× or 5× EC50, 8 h
Experimental: To assess the effect of the drug on the cellular morphology and configuration of nuclei and kinetoplasts, treated cells were collected after incubation period, fixed, DAPI-treated and viewed under an Olympus IX71 DeltaVision Core System microscope (Applied Precision, GE) using the SoftWoRx suite 2.0 software (Applied Precision, GE). At least 300 cells were scored per slide for the number of kinetoplasts (K) and nuclei (N) as 1N1K, 1N2K, 2N2K, MKMN (M = many) and ‘others’ (aberrant N/K distribution).

T. equiperdum = tested on: T. equiperdum; set-up: method as in Hulpia et al. [38]; details: compound marked *; ref Hulpia et al. [38]; cited from earlier work
T. congolense 6C3 [4] = tested on: T. congolense 6C3; set-up: method as in Hulpia et al. [38]; details: values marked *; ref Hulpia et al. [38]; cited from earlier work
T. congolense IL3000 [5] = tested on: T. congolense IL3000; set-up: method as in Hulpia et al. [38]; details: values marked *; ref Hulpia et al. [38]; cited from earlier work
[6] = tested on: human embryonic kidney (HEK) cells; experiment: Resazurin toxicity assay on human embryonic kidney cells; format: cell-based
Method in brief: (§2)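 Sigmoid curve (variable slope) fitted to obtain EC50. At least 3 independent determinations on different days, averaged.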

[7] = as above; format: cell-based; details: human
Method in brief: as §2

BSF T. congolense = experiment: Manual cell count of T. congolense cultures exposed to drug; format: cell-based, Trypanosoma congolense
Experimental: For the direct assessment of test compounds on parasite growth, a manual cell count of cultures grown in the presence or absence of test drugs was carried out to determine the effect of test drugs on the multiplication rate of the parasites as described. The cells were adjusted to the required density in 2 mL of the appropriate medium with or without the drug/compound of interest, in a 24-well plate, followed by incubation under standard conditions. The cells were then manually counted at intervals with a Neubauer cell chamber using a phase-contrast light microscope (Axioscope, Zeiss, Jena, Germany).

T. congolense 6C3 [8] = experiment: microbe, parasite or virus in culture; format: cell-based, Trypanosoma congolense; details: for T. congolense 6C3 RF: resistance factor = EC50 (test strain)/EC50(control strain); for EC50: Trypanosoma congolense, read-out: T. congolense 6C3 EC50
Method in brief: as §2

T. vivax = tested on: T. vivax; set-up: method as in Mabille et al. [69]; details: added for comparison only; ref Mabille et al. [69]; cited from earlier work
T. evansi = tested on: T. evansi; set-up: method as in Hulpia et al. [38]; details: compound marked *; ref Hulpia et al. [38]; cited from earlier work
T.b.b. B48 [9] = tested on: T.b.b. B48; set-up: method as in Hulpia et al. [38]; details: compound marked *; ref Hulpia et al. [38]; cited from earlier work
TcoAT1 [10] = experiment: Uptake of [3H]-pentamidine and [3H]-diminazene in SUPKO+TcoAT1 versus SUPKO; format: cell-based, Trypanosoma congolense; details: 25 nM [3H]-pentamidine or 50 nM [3H]-diminazene, SUPKO+TcoAT1 vs SUPKO
Experimental: Uptake assays using radiolabeled trypanocides and/or nucleosides were carried out as described previously. Briefly, parasite cultures were harvested, washed twice in assay buffer (33 mM HEPES, 98 mM NaCl, 4.6 mM KCl, 0.5 mM CaCl2, 0.07 mM MgSO4, 5.8 mM NaH3PO4, 0.03 mM MgCl2, 23 mM NaHCO3, 14 mM D-glucose, pH 7.3), then resuspended and adjusted to a density of 1 × 10^8 cells/mL in assay buffer. The radiolabeled permeant in the presence or absence of different concentrations of potential inhibitors reconstituted in 100 μL assay buffer was deposited on top of 250 μL oil mix in microcentrifuge tubes; 1 × 10^7 parasites in 100 μL assay buffer were added to the tube and incubated for a pre-determined interval. The reaction was stopped by the addition of 1 mL of a high concentration of ice-cold unlabeled substrate in assay buffer (‘stop solution’) and centrifugation, or by immediate centrifugation at […] as appropriate. The microcentrifuge tubes were flash-frozen, and the bottom of each tube containing the cell pellet was cut off and transferred to a scintillation vial. Cell pellets were lysed in 2% SDS, after which scintillation fluid (Scintlogic U, Lablogic) was added, followed by overnight incubation in the dark. Scintillation was measured in a 300SL (Hidex) scintillation counter (Hidex). […]

L. mexicana Cas9 = experiment: Resazurin drug sensitivity assay, LmexCas9; format: cell-based, Leishmania mexicana; details: Leishmania mexicana, read-out: LmexCas9 EC50
Method in brief: as §2

T.b.b. B48 [11] = experiment: Alamar Blue (resazurin) assay, T. b. brucei B48; format: cell-based, Trypanosoma brucei brucei; details: Trypanosoma brucei, read-out: T.b.b. B48 EC50
Method in brief: as §2

[12] = tested on: L. mexicana expressing TbAQP2; set-up: method as in PMID 24235095; details: cited from earlier work
L. mexicana SUPKO = experiment: microbe, parasite or virus in culture; format: cell-based, Leishmania mexicana; details: for EC50: Leishmania mexicana, read-out: SUPKO EC50, resazurin, promastigotes
Method in brief: as §2

L. mexicana SUPKO+TcoAT1 = experiment: microbe, parasite or virus in culture; format: cell-based, Leishmania mexicana; details: for EC50: Leishmania mexicana, read-out: SUPKO+TcoAT1 EC50
Method in brief: as §2

L. mexicana SUPKO+TvxNT3 = experiment: microbe, parasite or virus in culture; format: cell-based, Leishmania mexicana; details: for EC50: Leishmania mexicana, read-out: SUPKO+TvxNT3 EC50
Method in brief: as §2

T. congolense IL3000 [13] = experiment: Alamar Blue (resazurin) assay, T. congolense IL3000; format: cell-based, Trypanosoma congolense; details: Trypanosoma congolense, read-out: T. congolense IL3000 EC50
Method in brief: as §2

T. brucei wild type = details: cited from earlier work
T. brucei TbAT1-KO = details: cited from earlier work
[14] = tested on: T. congolense IL3000-based cell line expressing TbAT1; experiment: Resazurin drug sensitivity assay, T. congolense IL3000 expressing TbAT1; set-up: species or system Trypanosoma congolense; details: three independent clones, p < 0.0001
Experimental: EC50 values were determined by plotting to an equation for a sigmoid curve with variable slope (GraphPad Prism 8). All values were the average of at least three independent determinations on different days.

[15] = Resistance Factor relative to SUPKO

SMILES | Km (TbNT10) [µM] | ΔG0 (TcoAT1 [1]) [kcal/mol] | ΔG0, Gibbs free energy of interaction [2] [kcal/mol] | Tbb P1 ΔG0 [3] [kcal/mol] | T. congolense 6C3 RF (T. congolense 6C3 [8]) | Ki (TcoAT1 [1]; 0.05 µM [3H]-adenosine) [nM] | Ki ([2]; 0.05 µM [3H]-adenosine) [nM] | δ(ΔG0) (TcoAT1 [1]) [kcal/mol] | δ(ΔG0) (TvxNT3) [kcal/mol] | Ki ([3]; T. b. brucei bloodstream forms) [nM] | EC50 (L. mexicana Cas9) [nM] | EC50 (T.b.b. B48 [11]) [nM] | EC50 (L. mexicana SUPKO) [nM] | EC50 (L. mexicana SUPKO+TcoAT1) [nM] | EC50 (L. mexicana SUPKO+TvxNT3) [nM] | further results
Nc1ncnc2c1ncn2[C@@H]1O[C@H](CO)[C@@H](O)[C@H]1O [Adenosine] | 0.41 | -8.7 | -8.6 | -8.8 |  |  |  |  |  |  |  |  |  |  |  | Km (TcoAT1 [1]; 0.05 µM [3H]-adenosine, 10 s incubation): 0.42 ± 0.03 µM; Km ([2]; 0.05 µM [3H]-adenosine, 30 s incubation, bloodstream forms): 0.48 ± 0.03 µM; rate of adenosine uptake ([2]; 50 nM [3H]-adenosine, cultured IL3000): 0.014 ± 0.0037 pmol(10^7 cells)^−1s^−1; Vmax of adenosine uptake ([2]; 30 s incubation): 0.11 ± 0.02 pmol(10^7 cells)^−1s^−1; level of uptake of adenosine (TvxNT3; 50 nM [3H]-adenosine, SUPKO+TvxNT3): 3.9 × 10^−3 pmol(10^7 cells)^−1s^−1; remaining activity at 100 µM (TvxNT3): < 25%; Km ([3]; T. b. brucei bloodstream forms, read-out: Tbb P1 Km for adenosine): 0.36 ± 0.05 µM
Nc1ncnc2c1c(Cl)cn2[C@@H]1O[C@H](CO)C[C@H]1O [FH8470, 7-chloro-7-deaza-3′-deoxyadenosine] |  | -5.76 | -6.48 |  | 0.53 ^a | 60600 ± 10700 | 17500 ± 3400 |  |  |  |  |  |  |  |  | reduction of the number of cells with 2N2K configuration (T. congolense IL3000 BSF): 40–50 % of untreated control; EC50 (T. equiperdum): 0.57 ± 0.08 nM; EC50 (T. congolense 6C3 [4]): 0.66 ± 0.03 nM; EC50 (T. congolense IL3000 [5]): 1.2 ± 0.2 nM; SI T. congolense ([6]; selectivity index = EC50 (HEK cells)/EC50 (T. congolense)): 9800; SI T. equiperdum ([6]; selectivity index = EC50 (HEK cells)/EC50 (T. equiperdum)): 21,100; SI T. evansi ([6]; selectivity index = EC50 (HEK cells)/EC50 (T. evansi)): 6830; EC50 [7]: 12000 ± 320 nM; time to killing of the parasites (BSF T. congolense; 5 × EC50, exposure for 48 h or continuously): ≤ 72 h; time to death of the cells (BSF T. congolense; 15 × EC50, short exposure (8 h), washed out or continuous): ≤ 48 h; EC50 (T. vivax): 96 ± 82 nM; EC50 (T. evansi): 1.8 ± 0.2 nM; EC50 (T.b.b. B48 [9]): 6.8 ± 0.9 nM
O=c1[nH]cnc2c1ncn2[C@@H]1O[C@H](CO)[C@@H](O)[C@H]1O [Inosine] | 0.53 | -8.53 | -8.96 | -8.68 |  | 550 ± 90 | 270 ± 20 | 0.163 | 1.21 | 440 ± 100 |  |  |  |  |  | remaining activity at 100 µM (TvxNT3; 100 µM inhibitor, 50 nM [3H]-adenosine): < 25%
N=C(N)c1ccc(OCCCCCOc2ccc(C(=N)N)cc2)cc1 [Pentamidine, reference compound] |  |  |  |  | 0.79 |  |  |  |  |  | 1430 ± 50 | 340 ± 60 | 1830 ± 290 | 1730 ± 200 | 2310 ± 180 | effect of the expression of TcoAT1 on the uptake of the trypanocide (TcoAT1 [10]): no effect; sensitization upon expression of TbAQP2 [12]: 40 fold; EC50 (T. congolense 6C3 [8]): 440 ± 150 nM; SUPKO RF (Cas9) (L. mexicana SUPKO; Resistance Factor = EC50(SUPKO)/EC50(Cas9)): 1.28; SUPKO+TcoAT1 RF (SUPKO) (L. mexicana SUPKO+TcoAT1; [15]): 1.1; SUPKO+TvxNT3 RF (SUPKO) (L. mexicana SUPKO+TvxNT3; [15]): 0.77; EC50 (T. congolense IL3000 [13]; BSF, resazurin): 550 ± 110 nM
Nc1ncnc2c1ccn2[C@@H]1O[C@H](CO)[C@@H](O)[C@H]1O [Tubercidin, 7-deazaadenosine] |  | -4.25 |  | -5.59 |  | 754000 ± 54300 | 403000 ± 120000 | 4.441 | -3.148 | 78000 ± 6400 | 440 ± 60 | 4300 ± 1300 | > 100000 | > 100000 | > 100000 | EC50 (T. brucei wild type): 150 ± 30 nM; EC50 (T. congolense 6C3 [8]; diminazene resistant strain, resazurin): 1830 ± 390 nM; EC50 (T. brucei TbAT1-KO): 4300 ± 1300 nM; δ(ΔG0) (TcoAT1 [1]; listed as tubercidin): 4.45 kcal/mol; δ(ΔG0) (TvxNT3; listed as tubercidin): 3.15 kcal/mol; effect of TbAT1 expression on sensitivity [14]: highly significant sensitization; EC50 (T. congolense IL3000 [13]): 3160 ± 500 nM
